The record followed here is paper PMC9027131, “Dual PI3K/Akt Inhibitors Bearing Coumarin-Thiazolidine Pharmacophores as Potential Apoptosis Inducers in MCF-7 Cells” (Pharmaceuticals, 2022).

The target in one test is T1, Akt-1 (Homo sapiens, UniProt P31749).
T1 construct: purchased Abcam ab139436
Put plainly: Akt Kinase Activity assay kit. Particulars: means ± sd, n = 3; read-out: IC50 (µM) Akt-1 Isoform. It counts as biochemical. An excerpt:
(§1) Accumulating evidence highlighted that PI3K signaling pathway upregulation is highly implicated in breast cancer development and disease progression as well as resistance to hormones and cytotoxic therapy. Therefore, it is essential to elucidate the effect of the novel compound, VIIb, on the PI3K/Akt signaling pathway by using in vitro PI3K class 1A enzyme inhibition assay conducted on PI3K-α and PI3K-γ isoforms as well as an Akt-1 enzyme inhibition assay. […] Furthermore, targeting the PI3K-γ isoform in breast cancer could contribute to enhancing the anti-tumor immunity.
The in vitro inhibition of PI3K and Akt kinase activities by VIIb was assessed using a PI3Kα (p110α/p85) assay kit (Catalog #79781; BPS Bioscience, Inc, San Diego, CA, USA), PI3Kγ (p110γ/PIK3R5) assay kit (Catalog #79803; BPS Bioscience, Inc, San Diego, CA, USA), and Akt Kinase Activity assay kit (ab139436; Abcam, Cambridge, UK) following the manufacturer’s instructions as described previously. The results were expressed as IC50 values using dose–response curves and linear regression equations. LY294002 compound was taken as the reference compound. The values were means ± sd; n = 3.

Another test concerns the target T2, PI3K-γ (Homo sapiens, UniProt P48736).
T2 construct: purchased BPS Bioscience, Inc 79803
Put plainly: PI3Kγ (p110γ/PIK3R5) enzyme inhibition assay kit. The class given is biochemical. Particulars: means ± sd, n = 3; read-out: IC50 (µM) PI3K-γ Isoform.
Source text: as §1
The in vitro inhibition of PI3K and Akt kinase activities by VIIb was assessed using a PI3Kα (p110α/p85) assay kit (Catalog #79781; BPS Bioscience, Inc, San Diego, CA, USA), PI3Kγ (p110γ/PIK3R5) assay kit (Catalog #79803; BPS Bioscience, Inc, San Diego, CA, USA), and Akt Kinase Activity assay kit (ab139436; Abcam, Cambridge, UK) following the manufacturer’s instructions as described previously. The results were expressed as IC50 values using dose–response curves and linear regression equations.

The subject of test [1] is MCF-7 cells. Put plainly: Cell cycle analysis by flow cytometry (propidium iodide). It counts as cell-based, human. The note with it: MCF-7, treated at IC50, 48 h. The procedure:
VIIb-treated cells were subjected to cell cycle phase distribution analysis as well as apoptosis rates determination by flow cytometric analysis in MCF-7 cells, as reported.
Control and VIIb-treated (IC50 µM, 48 h) MCF-7 cells were harvested and then subjected to cell cycle analysis by flow cytometry.
(§2) Cell cycle analysis and apoptosis rates following VIIb treatment were investigated using a Propidium Iodide Flow Cytometry Kit (ab139418; Abcam, Cambridge, UK) and Annexin V-FITC apoptosis kit (Catalog: K101-25; BioVision Research Products, San Francisco, CA, USA), respectively, following the manufacturer’s instructions as stated by a previous study.
In general terms: Flow cytometry measures light scatter and fluorescence of single cells or particles in a stream.

Another test relates to caspase-9. Put plainly: Cleaved caspase-9 level by ELISA in MCF-7 cells. It counts as cell-based, human. The note with it: MCF-7, 48 h; control 2.712 ± 0.09; means ± sd, n = 3. The protocol: Apoptosis is a programmed cell death modality that includes an array of steps such as activation of caspases alongside endonucleases leading to DNA cleavage, eventually causing the formation of apoptotic bodies. Caspases are classified into effector caspases, such as caspase-3, -6, and -7, and initiator caspases, including either caspase-2, -8, and -10 (extrinsic pathway) or caspase-9 (intrinsic pathway).
The level of cleaved caspase-9 was assessed in both untreated/control MCF-7 cells and following VIIb treatment using DRG® Caspase-9 (human) ELISA (EIA-4860), following the manufacturer’s instructions (DRG International Inc., Springfield, NJ, USA). The data were means ± sd; n = 3.

For test [2], the system named is MCF-7 cells. Put plainly: MTT cytotoxicity assay in MCF-7 cells. The class given is cell-based, human. Particulars: Homo sapiens, MCF7, 48 h, means ± sd, n = 3. The procedure:
The in vitro anticancer activity of the designed coumarin-thiosemicarbazones and coumarin-thiazolidine-4-one hybrids against MCF-7 cells was tested using the MTT assay, and 5-fluorouracil (5-FU) was used as the reference drug. The tested compounds were used in different concentrations, and cell survival was determined after incubation for 48 h as reported. The cytotoxic activity is represented in Table 1 as IC50 (µM) values.
MCF-7 breast cancer cell line (ATCC® HTB-22™) plus non-tumorigenic epithelial cell line (MCF 10, ATCC® CRL-10317™) were supplied from VACSERA (Cairo, Egypt) and cultured in Dulbecco’s Modified Eagle Medium (Invitrogen-Life Technologies, Carlsbad, CA, USA) with 1% antibiotic solution (streptomycin–penicillin) plus 10% fetal bovine serum (Hyclone) in a 5% (v/v) humidified CO2 incubator at 37 °C.
Firstly, cells were kept in a humidified atmosphere (37 °C, 24 h), and then incubated with serial concentrations of the tested compounds. After 48 h, the medium was aspirated, and then cells were incubated with 5% MTT solution (M-5655; Sigma Aldrich, St. Louis, MO USA) (200 µL/well, 2 h), allowing the dye to metabolize into the colored insoluble formazan complex that was then dissolved in the appropriate solubilization solution (M-8910) (200 µL/well), for 30 min with gentle mixing at room temperature. The UV absorbance was measured using a microplate reader (570 nm), and cell viability was determined with respect to untreated control cells. […] The values were means ± sd; n = 3.

The test system of test [3] is MCF-7 cells. Put plainly: Annexin V-FITC/PI apoptosis assay by flow cytometry. The class given is cell-based, human.
Source text: Remarkably, clinical oncology aims at developing novel targeted cancer therapies that could induce apoptosis in neoplastic cells to enhance their eradication. Since loss of apoptosis is closely related to cancer cell survival and abnormal growth, induction of apoptotic signaling pathways is a crucial mechanism in targeted cancer therapy. To further explore the link between apoptosis rates and VIIb treatment, the pro-apoptotic activity of this novel compound was investigated by flow cytometry using both Annexin V (V) and propidium iodide (PI) dyes. A distinctive feature of early apoptosis is phosphatidylserine transfer toward the cellular surface. Thus, phosphatidylserine can be detected by fluorochrome-tagged anticoagulant protein V. Therefore, the viable cells remained unstained (V^−/PI^−).
Control untreated and MCF-7 cells treated with compound VIIb at its IC50 (µM) for 48 h were subjected to apoptotic analysis using Annexin V (V) and propidium iodide (PI) fluorescent dyes.
as §2

The mark [4] stands for this setting: MCF-7, with respect to control cells.

T1 sequence (P31749 whole entry, species assumed): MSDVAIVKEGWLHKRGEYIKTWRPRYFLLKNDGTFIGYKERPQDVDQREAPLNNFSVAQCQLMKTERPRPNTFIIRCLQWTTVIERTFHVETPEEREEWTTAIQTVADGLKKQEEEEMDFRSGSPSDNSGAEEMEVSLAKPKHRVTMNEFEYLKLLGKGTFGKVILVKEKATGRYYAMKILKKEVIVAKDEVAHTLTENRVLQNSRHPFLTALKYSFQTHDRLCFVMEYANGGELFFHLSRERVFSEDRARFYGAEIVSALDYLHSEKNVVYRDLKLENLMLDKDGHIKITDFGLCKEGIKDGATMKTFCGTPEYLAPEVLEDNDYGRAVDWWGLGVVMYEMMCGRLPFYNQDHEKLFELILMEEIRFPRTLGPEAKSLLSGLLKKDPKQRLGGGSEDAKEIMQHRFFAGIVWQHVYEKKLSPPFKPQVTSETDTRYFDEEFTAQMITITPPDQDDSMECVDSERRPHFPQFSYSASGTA
T2 sequence (P48736 whole entry): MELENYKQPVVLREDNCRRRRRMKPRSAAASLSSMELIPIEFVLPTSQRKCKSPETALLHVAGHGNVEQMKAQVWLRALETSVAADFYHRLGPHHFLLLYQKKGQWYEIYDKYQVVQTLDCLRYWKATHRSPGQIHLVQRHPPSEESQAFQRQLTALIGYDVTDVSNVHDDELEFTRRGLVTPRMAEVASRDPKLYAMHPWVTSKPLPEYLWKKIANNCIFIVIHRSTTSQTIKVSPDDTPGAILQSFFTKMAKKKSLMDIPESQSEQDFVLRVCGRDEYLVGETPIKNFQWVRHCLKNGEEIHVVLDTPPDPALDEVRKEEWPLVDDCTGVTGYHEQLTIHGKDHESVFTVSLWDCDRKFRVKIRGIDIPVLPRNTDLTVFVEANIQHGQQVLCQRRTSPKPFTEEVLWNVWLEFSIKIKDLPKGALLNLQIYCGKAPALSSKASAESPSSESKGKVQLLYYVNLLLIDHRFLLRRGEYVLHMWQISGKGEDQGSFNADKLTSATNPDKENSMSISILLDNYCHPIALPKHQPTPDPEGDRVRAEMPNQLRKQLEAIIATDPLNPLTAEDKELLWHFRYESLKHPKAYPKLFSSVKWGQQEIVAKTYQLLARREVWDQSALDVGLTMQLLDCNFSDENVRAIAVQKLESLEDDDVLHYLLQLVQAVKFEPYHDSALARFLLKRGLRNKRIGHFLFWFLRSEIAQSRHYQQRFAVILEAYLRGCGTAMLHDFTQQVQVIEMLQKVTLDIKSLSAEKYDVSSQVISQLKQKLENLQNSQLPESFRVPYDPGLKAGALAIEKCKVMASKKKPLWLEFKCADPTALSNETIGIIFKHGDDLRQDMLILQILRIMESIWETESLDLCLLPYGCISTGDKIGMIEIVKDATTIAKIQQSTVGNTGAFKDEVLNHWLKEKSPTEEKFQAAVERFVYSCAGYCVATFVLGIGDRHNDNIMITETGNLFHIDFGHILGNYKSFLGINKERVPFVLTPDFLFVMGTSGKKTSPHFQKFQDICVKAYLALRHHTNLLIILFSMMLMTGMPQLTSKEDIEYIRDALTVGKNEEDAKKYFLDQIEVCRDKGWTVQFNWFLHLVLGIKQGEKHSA
T2 sequence (Q8WYR1 whole entry partner): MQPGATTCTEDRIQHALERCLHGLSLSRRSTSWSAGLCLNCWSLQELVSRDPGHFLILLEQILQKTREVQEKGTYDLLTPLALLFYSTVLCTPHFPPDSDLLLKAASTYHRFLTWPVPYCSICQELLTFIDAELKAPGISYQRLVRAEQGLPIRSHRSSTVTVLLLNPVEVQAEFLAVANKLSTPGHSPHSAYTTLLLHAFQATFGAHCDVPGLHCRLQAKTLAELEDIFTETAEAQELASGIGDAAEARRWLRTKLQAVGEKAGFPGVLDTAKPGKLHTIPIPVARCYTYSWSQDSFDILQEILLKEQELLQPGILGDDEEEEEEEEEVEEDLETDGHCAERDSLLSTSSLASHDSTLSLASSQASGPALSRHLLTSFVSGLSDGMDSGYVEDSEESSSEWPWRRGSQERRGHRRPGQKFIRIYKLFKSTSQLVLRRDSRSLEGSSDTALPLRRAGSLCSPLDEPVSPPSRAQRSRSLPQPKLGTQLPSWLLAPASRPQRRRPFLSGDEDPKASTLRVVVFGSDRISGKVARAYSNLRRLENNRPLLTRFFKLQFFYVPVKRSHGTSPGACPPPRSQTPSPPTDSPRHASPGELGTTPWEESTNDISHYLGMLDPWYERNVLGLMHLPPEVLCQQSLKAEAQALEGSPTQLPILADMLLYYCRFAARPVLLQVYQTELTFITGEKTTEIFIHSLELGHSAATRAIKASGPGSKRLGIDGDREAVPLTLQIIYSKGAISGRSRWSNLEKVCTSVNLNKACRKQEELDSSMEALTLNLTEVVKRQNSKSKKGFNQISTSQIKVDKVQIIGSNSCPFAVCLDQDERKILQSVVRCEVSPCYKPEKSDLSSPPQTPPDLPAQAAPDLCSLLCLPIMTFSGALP

As usually defined, the IC50 is the concentration at which inhibition is half-maximal. As for `C/C(=N/N=C1/SCC(=O)N1C(=O)c1ccccc1)c1c(O)ccc2c(C)cc(=O)oc12` [VIIb], the IC50 at Akt-1 worked out at 2.93 ± 0.15 µM; at PI3K-γ, 34.7 ± 1.88 µM; with MCF-7 cells [2], 1.03 ± 0.05 µM. Further, the “DNA Content % Pre G1” value with MCF-7 cells [1] (control 1.55) turned out to be 35.25%. In the test with MCF-7 cells [1] (control 9.71), the “DNA Content % G2/M” value was 5.59%. For the same molecule, the “DNA Content % S” value in the test on MCF-7 cells [1] (control 36.58) was 46.02%. The “DNA Content % G0/G1” value with MCF-7 cells [1] (control 53.71) is on record as 48.39%. For the same molecule, the “Caspase-9 Level” value with caspase-9 is 21.61 ± 0.14 ng/mL. In addition, the “Apoptosis % Late (V+/PI+)” value in the test on MCF-7 cells [3] (MCF-7, treated at IC50, 48 h, control 0.17) turned out to be 21.05%. For the same molecule, in the test on MCF-7 cells [3] (MCF-7, treated at IC50, 48 h, control 0.48), the “Apoptosis % Early (V+/PI−)” value is reported as 2.51%. Besides, the Necrosis% in the test with MCF-7 cells [3] (MCF-7, treated at IC50, 48 h, control 0.90) was 11.69%. In addition, the “Apoptosis % Total” value with MCF-7 cells [3] (MCF-7, treated at IC50, 48 h, control 1.55) is 35.25%. In addition, the “fold increase in early apoptotic cells” value in the test with MCF-7 cells [3] (setting [4]) amounted to 5 fold. Besides, in the test with MCF-7 cells [3] (setting [4]), the “fold increase in late apoptotic cells” value was determined as 100 fold.
